“Also recorded” adds a separate entry of the source. Counter-ions that a name gives are not always drawn.
Columns and labels:
[1] = tested on: Influenza A Virus, subtype H1N1; type: cell-based
[2] = tested on: Human rhinovirus type 16 (HRV16); type: cell-based
[3] = tested on: human mammalian cells; conditions: cited from earlier work

SMILES	H1N1 viral replication by qPCR [1]	HRV16 viral replication by qPCR [2]	concentration physiologically relevant, efficacious and non-cytotoxic [3] [nM]
COC(=O)/C=C/C(=O)OC [DMF, dimethyl fumarate]	inhibit H1N1 replication; also recorded: inhibit the replication	minimally inhibit HRV16 replication; also recorded: little antiviral activity	–
COC1=C(OC)C(=O)C(CCCCCCCCCC[P+](c2ccccc2)(c2ccccc2)c2ccccc2)=C(C)C1=O [Mito-MES, 10-(4,5-dimethoxy-2-methyl-3,6-dioxo-1,4-cyclohexadienyl) decyl triphenylphosphonium]	–	–	< 2000
